Results: patent US20260048051A1, “TREATMENT OF INFLAMMATORY BOWEL DISEASE” (Atomwise Inc., priority 2024, published 2026)
Read-outs that look alike come from different tables or passages of the source.

Assay: Plasma and tissue distribution in SD rats
Type: in vivo
Conditions: for Tissue/Plasma Ratio (AUCinf) / Kp: SD rat; for Kp: rat, oral, read-out: Tissue/Plasma Ratio (AUCinf); for Cmax / Tmax / half-life / AUC0-inf / AUC0-24 / AUC0-last: PO 10 mg/kg
Excerpt: The following Example describes the methods and data used to evaluate the tissue distribution of TYK2 inhibitors following the administration of either compound 1 or compound 2.
Thirty (30, 15/sex) SD rats supplied by Beijing Vital River Laboratory Animal Technology Co., Ltd. were used in this study. The animals were confirmed to be healthy before being assigned to the study. The room (s) was controlled and monitored for relative humidity (targeted mean range 40% to 70%) and temperature (targeted mean range 20° C. to 26° C.) with 15 or above air changes/hour. The room was on a 12-hour light/dark cycle except when interruptions were necessitated by study activities. Fresh drinking water (reverses osmosis) was available to all animals, ad libitum. Certified animal diet from certified vendor was available to all animals, ad libitum.
Animals were weighed prior to dose administration to calculate the actual dose volume. The body weights were in the range from 245.39 to 276.33 g for males and 182.29 to 215.69 g for females on the first dosing day. The animals in Groups 1 and 2 received a single oral gavage administration of test compound 1. Cage-side observations for the general health condition and appearance of the animal were performed before and after dosing and at each time point of sample collection. Unusual observations were recorded throughout the duration of the study.
The vehicle was 0.5% methyl cellulose (4000 cps) in water. The formulation was prepared according to the following steps. Group 1: 25.95 mg of compound 1 was weighed into a glass vial. 5000 μL of vehicle was added into the vial and stirred for 30 min at 1700 rpm to get a homogenous opaque suspension. 5000 μL of vehicle was added into the vial and stirred for 10 min at 1700 rpm to get a homogenous opaque suspension. 5000 μL+5000 μL+5000 μL+924 μL of vehicle was added into the vial and stirred for 10 min at 1700 rpm to get a homogenous opaque suspension. Group 2: 81.66 mg of compound 1 was weighed into a glass vial. 5000 μL of vehicle was added into the vial and stirred for 30 min at 1700 rpm to get a homogenous opaque suspension. 5000 μL of vehicle was added into the vial and stirred for 10 min at 1700 rpm to get a homogenous opaque suspension. 10 mL+10 mL+10 mL+20 mL+10 mL+10 mL+1580 μL of vehicle was added into the vial and stirred for 10 min at 1700 rpm to get a homogenous opaque suspension.
Blood (about 0.2 mL) was collected at each time point via jugular vein puncture from each study animal. The actual time for each sample collection was recorded. The acceptable deviations on sampling time were ±1 min for the time points pre-dose through 1 hour post-dose, and +5% of the nominal time for time points after 1 hour post-dose.
All blood samples were transferred into commercial tubes containing K2-EDTA. After blood was collected, the samples were placed on wet ice and processed for plasma within 60 minutes of collection by centrifugation at approximately 4° C., 3200×g for 10 minutes, and then quickly frozen over dry ice and kept at −60° C. or lower until LC-MS/MS analysis.
Following terminal blood sample collection, animals were conducted CO2 euthanasia, the chest and abdominal cavities were opened carefully lengthwise using scissors to expose the internal organs in preparation of tissue perfusion. A needle was used to puncture a small hole into the left ventricle of the heart, and then clamped with a hemostat. […] Fluid (cold 1×PBS) was infused until the liver pales (typically 2-3 minutes). Following perfusion, 14 kinds of tissues (spleen, bone marrow, adipose, brain, heart, kidney, liver, lung, skin, small intestine, large intestine, eye, gonads, and bladder) were collected from each animal, respectively.
Each tissue was weighed and homogenized on wet ice using homogenizing buffer (MeOH/15 mM PBS 1:2) at the ratio of 1:9 (1 g tissue with 9 mL buffer). The tissue homogenate was kept at −60° C. or lower until LC-MS/MS analysis. […]

[1] = Sprague-Dawley, epididymis and testis, male SD rat, Epididymis & Testis
[2] = Sprague-Dawley, male SD rat, Eyeball (left and right)
[3] = Sprague-Dawley, male SD rat, Fat
[4] = Sprague-Dawley, male SD rat, Heart
[5] = Sprague-Dawley, male SD rat, Kidney (left and right)
[6] = Sprague-Dawley, male SD rat, Large intestine
[7] = Sprague-Dawley, plasma, female SD rat
[8] = Sprague-Dawley, plasma, male SD rat
[9] = female SD rat, Eyeball (left and right)
[10] = female SD rat, Kidney (left and right)

C[C@@H](c1ccc(Nc2cc(Nc3ncccc3S(C)(=O)=O)ncn2)nc1)N1CC2(COC2)C1 [Compound 1, (S)—N^4-(5-(1-(2-oxa-6-azaspiro[3.3]heptan-6-yl)ethyl)pyridin-2-yl)-N^6-(3-(methylsulfonyl)pyridin-2-yl)pyrimidine-4,6-diamine]
Tissue/Plasma Ratio (AUCinf) (Kidney): 9.1 | Tissue/Plasma Ratio (AUCinf) (Large Intestine): 13 | Kp (Sprague-Dawley (SD), bone marrow / plasma, Bone Marrow): 4.3 | Cmax [1]: 350 ng/g | Tmax [1]: 8 h | Kp (Sprague-Dawley, adipose, Adipose): 0.59 | Kp (Sprague-Dawley, bladder, Bladder): 5 | Kp (Sprague-Dawley, eye, Eye): 0.8 | Kp (Sprague-Dawley, kidney, Kidney): ~9 | Kp (Sprague-Dawley, large intestine, Large Intestine): ~13 | Kp (Sprague-Dawley, liver, Liver): 7.6 | Kp (Sprague-Dawley, lung, Lung): 2 | Kp (Sprague-Dawley, skin, Skin): 3.2 | Kp (Sprague-Dawley, small intestine, Small Intestine): 21 | Kp (Sprague-Dawley, spleen, Spleen): 5.4 | Cmax [2]: 327 ng/g | Tmax [2]: 0.5 h | half-life [2]: 4.03 h | Cmax [3]: 464 ng/g | Tmax [3]: 0.5 h | half-life [3]: 3.08 h | Cmax [4]: 1260 ng/g | Tmax [4]: 0.5 h | half-life [4]: 2.31 h | Cmax [5]: 6140 ng/g | Tmax [5]: 0.5 h | half-life [5]: 3.79 h | Cmax [6]: 5180 ng/g | Tmax [6]: 8 h | Cmax [7]: 1180 ng/mL | Tmax [7]: 0.5 h | half-life [7]: 2.39 h | AUC0-inf (Sprague-Dawley, plasma, female SD rat, read-out: AUC0-inf): 3610 ng·h/mL | Cmax [8]: 1370 ng/mL | Tmax [8]: 0.667 h | half-life [8]: 2.75 h | AUC0-inf (Sprague-Dawley, plasma, male SD rat, read-out: AUC0-inf): 2920 ng·h/mL | AUC0-24 (female SD rat, Bladder): 17454 ng·h/g | AUC0-inf (female SD rat, Bladder): 17693 ng·h/g | AUC0-last (female SD rat, Bladder): 17454 ng·h/g | Cmax (female SD rat, Bladder): 4150 ng/g | Tmax (female SD rat, Bladder): 2 h | half-life (female SD rat, Bladder): 3.61 h | AUC0-24 (female SD rat, Bone Marrow): 17781 ng·h/g | AUC0-inf (female SD rat, Bone Marrow): 17791 ng·h/g | AUC0-last (female SD rat, Bone Marrow): 15823 ng·h/g | Cmax (female SD rat, Bone Marrow): 3840 ng/g | Tmax (female SD rat, Bone Marrow): 0.5 h | half-life (female SD rat, Bone Marrow): 2.52 h | AUC0-24 [9]: 3253 ng·h/g | AUC0-inf [9]: 3348 ng·h/g | AUC0-last [9]: 3253 ng·h/g | Cmax [9]: 449 ng/g | Tmax [9]: 2 h | half-life [9]: 4.51 h | AUC0-24 (female SD rat, Fat): 1725 ng·h/g | AUC0-last (female SD rat, Fat): 1725 ng·h/g | Cmax (female SD rat, Fat): 417 ng/g | Tmax (female SD rat, Fat): 2 h | AUC0-24 (female SD rat, Heart): 5608 ng·h/g | AUC0-inf (female SD rat, Heart): 5627 ng·h/g | AUC0-last (female SD rat, Heart): 4754 ng·h/g | Cmax (female SD rat, Heart): 1280 ng/g | Tmax (female SD rat, Heart): 0.5 h | half-life (female SD rat, Heart): 2.88 h | AUC0-24 [10]: 36323 ng·h/g | AUC0-inf [10]: 36373 ng·h/g | AUC0-last [10]: 36323 ng·h/g | Cmax [10]: 7800 ng/g | Tmax [10]: 0.5 h | half-life [10]: 2.46 h | AUC0-24 (female SD rat, Large intestine): 39634 ng·h/g | AUC0-last (female SD rat, Large intestine): 39634 ng·h/g | Cmax (female SD rat, Large intestine): 4670 ng/g | Tmax (female SD rat, Large intestine): 8 h | AUC0-24 (female SD rat, Liver): 29588 ng·h/g | AUC0-inf (female SD rat, Liver): 29655 ng·h/g | AUC0-last (female SD rat, Liver): 29588 ng·h/g | Cmax (female SD rat, Liver): 6310 ng/g | Tmax (female SD rat, Liver): 0.5 h | half-life (female SD rat, Liver): 2.67 h | AUC0-24 (female SD rat, Lung): 8773 ng·h/g | AUC0-last (female SD rat, Lung): 8773 ng·h/g | Cmax (female SD rat, Lung): 2180 ng/g | Tmax (female SD rat, Lung): 2 h | AUC0-24 (female SD rat, Ovary & Uterus): 5024 ng·h/g | AUC0-inf (female SD rat, Ovary & Uterus): 5028 ng·h/g | AUC0-last (female SD rat, Ovary & Uterus): 4408 ng·h/g | AUC0-24 (female SD rat, Skin): 3803 ng·h/g | AUC0-last (female SD rat, Skin): 3803 ng·h/g | Cmax (female SD rat, Skin): 893 ng/g | Tmax (female SD rat, Skin): 2 h | AUC0-24 (female SD rat, Small intestine): 59880 ng·h/g | AUC0-inf (female SD rat, Small intestine): 59932 ng·h/g | AUC0-last (female SD rat, Small intestine): 59880 ng·h/g | Cmax (female SD rat, Small intestine): 12300 ng/g | Tmax (female SD rat, Small intestine): 0.5 h | half-life (female SD rat, Small intestine): 2.3 h
